The values below come from PMC7163917 (European journal of medicinal chemistry, 2020).

The test system of experiment [1] is phosphorylation of Pyk2 in PC12 cells. Put plainly: NGF-induced phosphorylation of Pyk2 in PC12 cells. It is filed as cell-based. As to conditions: 20 μM inhibitor, NGF 5 min.
Experiment [2] relates to phosphorylation of ERK1/2 in PC12 cells. Put plainly: NGF-induced phosphorylation of ERK1/2 in PC12 cells. It is filed as cell-based. Conditions: 20 μM inhibitor, NGF 5 min.
In experiment [3] the target is T1, STEP (Homo sapiens, UniProt P54829).
T1 sequence (P54829 300-555 limits assumed): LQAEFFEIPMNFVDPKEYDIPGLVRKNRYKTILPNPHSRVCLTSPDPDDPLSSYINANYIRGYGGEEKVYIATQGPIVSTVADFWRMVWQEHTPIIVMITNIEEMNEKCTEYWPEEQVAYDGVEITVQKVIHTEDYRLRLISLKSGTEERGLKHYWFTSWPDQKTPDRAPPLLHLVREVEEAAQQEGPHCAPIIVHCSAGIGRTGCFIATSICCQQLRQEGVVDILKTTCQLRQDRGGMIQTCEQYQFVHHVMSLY
Put plainly: Ki measurement and Lineweaver-Burk kinetic analysis of STEP inhibition. It is filed as biochemical. Conditions: pNPP, pH 6.0, 30 °C.

Experiment [4] concerns the target STEP F523A mutant (Homo sapiens, UniProt P54829, F547A).
Experiment [5] addresses T1, STEP. Put plainly: STEP-catalyzed pNPP hydrolysis inhibition. It is filed as biochemical. Conditions: ST3 analogs, removal of carboxyl and hydroxyl group.

Molecules are shown by their SMILES. Where two headings read alike, the source gives them in different places.

Chain of STEP F523A mutant (P54829 282-563 F547A): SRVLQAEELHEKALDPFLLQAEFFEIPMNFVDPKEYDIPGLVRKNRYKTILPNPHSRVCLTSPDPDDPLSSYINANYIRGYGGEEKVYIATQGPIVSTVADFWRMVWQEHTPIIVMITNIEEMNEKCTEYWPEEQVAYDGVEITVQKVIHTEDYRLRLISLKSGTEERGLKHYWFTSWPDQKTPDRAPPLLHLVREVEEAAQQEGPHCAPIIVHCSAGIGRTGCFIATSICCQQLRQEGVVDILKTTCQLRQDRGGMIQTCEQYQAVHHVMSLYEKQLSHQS

For `O=C(O)c1cccc2c1NC(c1cccc(Br)c1)C1CC(Sc3ccccc3[N+](=O)[O-])C(Cl)C21` (centres unmarked) [ST2], the “effect on NGF-induced phosphorylation of Pyk2” value (from here on “effect … of Pyk2”) in experiment [1] is “significantly increased”. In addition, the “effect on NGF-induced phosphorylation of ERK1/2” value (“effect … of ERK1/2” for short) in experiment [2] is “significantly increased”. Also, the “inhibition pattern (Lineweaver-Burk plot)” value (shortened to “inhibition pattern”) in experiment [3] was “competitive”. For the same molecule, in experiment [4], the “inhibitory activity in STEP F523A mutant compared with wild type” value is given as “decreased”.
In the case of `O=C(O)c1cccc2c1NC(c1ccc(F)cc1)C1CC(Sc3ccccc3[N+](=O)[O-])C(Cl)C21` (centres unmarked) [ST2–5], the “effect … of Pyk2” value in experiment [1] is on record as “significantly increased”. The “effect … of ERK1/2” value in experiment [2] is on record as “significantly increased”. The “inhibition pattern” value in experiment [3] is on record as “competitive”. In addition, the “inhibitory activity in STEP F523A mutant compared with wild type” value in experiment [4] was “decreased”.
For `O=C(O)c1cc(-c2ccc(/C=C3\Sc4ccccc4C3=O)o2)ccc1O` [ST3], in experiment [1], the “effect … of Pyk2” value is recorded as “significantly increased”. In addition, in experiment [2], the “effect … of ERK1/2” value was “significantly increased”. Besides, in experiment [3], the “inhibition pattern” value is recorded as “competitive”.
`Cc1cc(-c2ccc(/C=C3\Sc4ccccc4C3=O)o2)ccc1Cl` [ST3–1]: the “effect of structural change on STEP inhibitory activity” value in experiment [5] was “significantly decreased”.
Take `COC(=O)c1cccc(-c2ccc(/C=C3\Sc4ccccc4C3=O)o2)c1` [ST3–3]: in experiment [5], the “effect of structural change on STEP inhibitory activity” value is listed as “significantly decreased”.
With `Cc1cc(C(=O)O)ccc1-c1ccc(C=C2C(=O)c3ccccc3C2=O)o1` [ST3–5], in experiment [1], the “effect … of Pyk2” value is on record as “significantly increased”. Also, in experiment [2], the “effect … of ERK1/2” value was “significantly increased”. For the same molecule, the “inhibition pattern” value in experiment [3] is listed as “competitive”. Besides, the “inhibitory activity in STEP F523A mutant compared with wild type” value in experiment [4] (STEP F523A mutant) is recorded as “decreased”.
